Reference: ChEMBL document CHEMBL1201862, “PubChem BioAssay data set” (2004)
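Where inhibition never reached the appropriate level, the endpoint shown equals the highest concentration tested. Otherwise, values were interpolated linearly from a five-concentration, 48-hour dose response in 96-well plates. GI50: concentration for 50% inhibition of growth.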 Active and inactive are the calls of the source. No stated cut-off is given here; in the data, active = GI50 up to about 1.1 µM and inactive = higher.

Columns and labels:
Assay in all cases: DTP human tumour cell line panel, 48 h
SNB-75 = system: SNB-75
Malme-3M = system: Malme-3M
IGROV-1 = system: IGROV-1
M14 = system: M14
SNB-19 = system: SNB-19
OVCAR-5 = system: OVCAR-5
SN12C = system: SN12C
TK-10 = system: TK-10
HCT-15 = system: HCT-15
HOP-62 = system: HOP-62
NCI-H226 = system: NCI-H226
786-0 = system: 786-0
A498 = system: A498
PC-3 = system: PC-3
T47D = system: T47D
OVCAR-3 = system: OVCAR-3
MDA-MB-231 = system: MDA-MB-231
MDA-MB-435 = system: MDA-MB-435
MDA-N = system: MDA-N
UO-31 = system: UO-31
HCC 2998 = system: HCC 2998
ACHN = system: ACHN
CCRF-CEM = system: CCRF-CEM
SR = system: SR
SK-MEL-2 = system: SK-MEL-2
OVCAR-4 = system: OVCAR-4
RPMI-8226 = system: RPMI-8226
K562 = system: K562
HL-60 = system: HL-60
SK-MEL-28 = system: SK-MEL-28
A549 = system: A549
SF-268 = system: SF-268
LOX IMVI = system: LOX IMVI
HT-29 = system: HT-29
OVCAR-8 = system: OVCAR-8
CAKI-1 = system: CAKI-1
NCI-H23 = system: NCI-H23
U-251 = system: U-251
SK-MEL-5 = system: SK-MEL-5
SW-620 = system: SW-620
BT-549 = system: BT-549
NCI-H460 = system: NCI-H460
UACC-62 = system: UACC-62
MCF7 = system: MCF7
DU-145 = system: DU-145
HCT-116 = system: HCT-116
UACC-257 = system: UACC-257
MOLT-4 = system: MOLT-4
SF-295 = system: SF-295
NCI/ADR-RES = system: NCI/ADR-RES
SF-539 = system: SF-539
KM12 = system: KM12
Hs-578T = system: Hs-578T
EKVX = system: EKVX
COLO 205 = system: COLO 205
RXF 393 = system: RXF 393
NCI-H522 = system: NCI-H522
SK-OV-3 = system: SK-OV-3

Compound: COC(=O)C(CCCCNC(=O)CNC(=O)OCc1ccccc1)NC(=O)C(CCCCNC(=O)CNC(=O)OCc1ccccc1)NC(=O)OCc1ccccc1 (stereo unspecified)
- GI50 (SNB-75): 62.7 µM (inactive)
- GI50 (Malme-3M): 46.2 µM (inactive)
- GI50 (IGROV-1): > 10 µM (inactive)
- GI50 (M14): > 100 µM (inactive)
- GI50 (SNB-19): 93.3 µM (inactive)
- GI50 (OVCAR-5): > 100 µM (inactive)
- GI50 (SN12C): > 100 µM (inactive)
- GI50 (TK-10): > 100 µM (inactive)
- GI50 (HCT-15): > 100 µM
- GI50 (HOP-62): > 100 µM (inactive)
- GI50 (NCI-H226): > 100 µM (inactive)
- GI50 (786-0): 25 µM (inactive)
- GI50 (A498): > 100 µM (inactive)
- GI50 (PC-3): 96.2 µM (inactive)
- GI50 (T47D): 20.3 µM (inactive)
- GI50 (OVCAR-3): 53.3 µM (inactive)
- GI50 (MDA-MB-231): > 100 µM (inactive)
- GI50 (MDA-MB-435): 19.8 µM (inactive)
- GI50 (MDA-N): 51.6 µM (inactive)
- GI50 (UO-31): > 100 µM (inactive)
- GI50 (HCC 2998): 52.2 µM (inactive)
- GI50 (ACHN): > 100 µM (inactive)
- GI50 (CCRF-CEM): 42.8 µM (inactive)
- GI50 (SR): 41.8 µM (inactive)
- GI50 (SK-MEL-2): 19 µM (inactive)
- GI50 (OVCAR-4): 29.2 µM (inactive)
- GI50 (RPMI-8226): 20.4 µM (inactive)
- GI50 (K562): > 100 µM (inactive)
- GI50 (HL-60): 83.2 µM (inactive)
- GI50 (SK-MEL-28): 53.8 µM (inactive)
- GI50 (A549): > 100 µM (inactive)
- GI50 (SF-268): 78 µM (inactive)
- GI50 (LOX IMVI): 87.9 µM (inactive)
- GI50 (HT-29): > 100 µM (inactive)
- GI50 (OVCAR-8): 57.3 µM (inactive)
- GI50 (CAKI-1): > 100 µM (inactive)
- GI50 (NCI-H23): > 100 µM (inactive)
- GI50 (U-251): 54 µM (inactive)
- GI50 (SK-MEL-5): 69.5 µM (inactive)
- GI50 (SW-620): > 100 µM (inactive)
- GI50 (BT-549): 20.7 µM (inactive)
- GI50 (NCI-H460): > 100 µM (inactive)
- GI50 (UACC-62): 40 µM (inactive)
- GI50 (MCF7): 0.0805 µM (active)
- GI50 (DU-145): 98.4 µM (inactive)
- GI50 (HCT-116): 84.7 µM (inactive)
- GI50 (UACC-257): > 100 µM (inactive)
- GI50 (MOLT-4): 33.4 µM (inactive)

Compound: Cc1cs/c(=N/c2ccccc2)n1CCC(O)(P(=O)(O)O)P(=O)(O)O
- GI50 (SNB-75): > 100 µM (inactive)
- GI50 (SF-295): > 100 µM (inactive)
- GI50 (Malme-3M): > 100 µM (inactive)
- GI50 (IGROV-1): > 100 µM (inactive)
- GI50 (M14): > 100 µM (inactive)
- GI50 (SNB-19): > 100 µM (inactive)
- GI50 (OVCAR-5): > 100 µM (inactive)
- GI50 (TK-10): > 100 µM (inactive)
- GI50 (HCT-15): 63.1 µM
- GI50 (HOP-62): > 100 µM (inactive)
- GI50 (NCI-H226): > 100 µM (inactive)
- GI50 (786-0): > 100 µM (inactive)
- GI50 (PC-3): > 100 µM (inactive)
- GI50 (NCI/ADR-RES): > 100 µM (inactive)
- GI50 (SF-539): > 100 µM (inactive)
- GI50 (KM12): > 100 µM (inactive)
- GI50 (OVCAR-3): > 100 µM (inactive)
- GI50 (Hs-578T): > 100 µM (inactive)
- GI50 (MDA-MB-231): > 100 µM (inactive)
- GI50 (EKVX): > 100 µM (inactive)
- GI50 (MDA-N): > 100 µM (inactive)
- GI50 (UO-31): > 100 µM (inactive)
- GI50 (HCC 2998): > 100 µM (inactive)
- GI50 (ACHN): 67.3 µM (inactive)
- GI50 (COLO 205): > 100 µM (inactive)
- GI50 (A549): > 100 µM (inactive)
- GI50 (SF-268): > 100 µM (inactive)
- GI50 (LOX IMVI): > 100 µM (inactive)
- GI50 (HT-29): > 100 µM (inactive)
- GI50 (OVCAR-8): > 100 µM (inactive)
- GI50 (CAKI-1): > 100 µM (inactive)
- GI50 (NCI-H23): > 100 µM (inactive)
- GI50 (SK-MEL-5): 71.6 µM (inactive)
- GI50 (RXF 393): > 100 µM (inactive)
- GI50 (NCI-H522): > 100 µM (inactive)
- GI50 (BT-549): > 100 µM (inactive)
- GI50 (NCI-H460): 90.6 µM (inactive)
- GI50 (UACC-62): > 100 µM (inactive)
- GI50 (MCF7): > 100 µM (inactive)
- GI50 (DU-145): > 100 µM (inactive)
- GI50 (HCT-116): > 100 µM (inactive)
- GI50 (UACC-257): > 100 µM (inactive)
- GI50 (SK-OV-3): > 100 µM (inactive)
